According to patent US20230043863A1, “HETEROAROMATIC DERIVATIVES FOR USE AS REGULATOR, PREPARATION METHOD THEREFOR AND USE THEREOF” (JIANGSU HANSOH PHARMACEUTICAL GROUP CO., LTD., priority 2018, published 2023):
Like-named read-outs stand apart in the source and are kept apart here.

Assays:
[1] = target: TYK2 (Homo sapiens, UniProt P29597); experiment: JAK kinase activity inhibition, TR-FRET (TYK2); type: biochemical; conditions: TR-FRET kinase assay
Outline: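 Steps: compound dilutions added; JAK kinase (0.1-20 nM) in HEPES/MgCl2 buffer added; peptide substrate and ATP mix started the reaction, 0.5-5 h at room temperature; EDTA and labeled antibody added, 1-24 h further. IC50 derived from 620/665 nm signals by four-parameter nonlinear fitting.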

[2] = tested on: JAK-STAT signal pathway of U266 cells; experiment: Inhibition of cellular JAK-STAT signal pathway (STAT3 phosphorylation) in U266 cells; type: cell-based, human; conditions: Homo sapiens, U-266, INF-a 1000 U/mL stimulation
Outline: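 U266 cells (100-300 K/well) preincubated 2 h at room temperature with serially diluted compound, then stimulated 15 min with IFN-α at 1000 U/mL final. After lysis, STAT3 phosphorylation read by LANCE Ultra TR-FRET (Eu antibody 0.5 nM, ULight antibody 5 nM, overnight) at 665 nm; IC50 from 4-parameter fit of inhibition versus DMSO and negative controls.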

[3] = Balb/C mouse pharmacokinetics (plasma, colon, ileum); type: in vivo; conditions: male, po, Balb/C mice, p.o. 5 mg/kg; for Cmax: read-out: Blood concentration Cmax; for AUC(0-t): read-out: Curve area AUC0-t; for MRT: read-out: Mean detention time MRT; for Tmax: read-out: Time to peak tmax; for AUC(0-inf): read-out: Curve area AUC0-∞; for half-life: read-out: Half life period t1/2 (converted)
Outline: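 Male Balb/C mice (12 per group), fasted overnight, given 5 mg/kg p.o.; plasma, ileum and colon sampled at 0–7 h. Drug levels by LC/MS/MS, […]; parameters include colon/ileum and colon/plasma concentration ratios.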

Sequence of TYK2 (P29597 whole entry): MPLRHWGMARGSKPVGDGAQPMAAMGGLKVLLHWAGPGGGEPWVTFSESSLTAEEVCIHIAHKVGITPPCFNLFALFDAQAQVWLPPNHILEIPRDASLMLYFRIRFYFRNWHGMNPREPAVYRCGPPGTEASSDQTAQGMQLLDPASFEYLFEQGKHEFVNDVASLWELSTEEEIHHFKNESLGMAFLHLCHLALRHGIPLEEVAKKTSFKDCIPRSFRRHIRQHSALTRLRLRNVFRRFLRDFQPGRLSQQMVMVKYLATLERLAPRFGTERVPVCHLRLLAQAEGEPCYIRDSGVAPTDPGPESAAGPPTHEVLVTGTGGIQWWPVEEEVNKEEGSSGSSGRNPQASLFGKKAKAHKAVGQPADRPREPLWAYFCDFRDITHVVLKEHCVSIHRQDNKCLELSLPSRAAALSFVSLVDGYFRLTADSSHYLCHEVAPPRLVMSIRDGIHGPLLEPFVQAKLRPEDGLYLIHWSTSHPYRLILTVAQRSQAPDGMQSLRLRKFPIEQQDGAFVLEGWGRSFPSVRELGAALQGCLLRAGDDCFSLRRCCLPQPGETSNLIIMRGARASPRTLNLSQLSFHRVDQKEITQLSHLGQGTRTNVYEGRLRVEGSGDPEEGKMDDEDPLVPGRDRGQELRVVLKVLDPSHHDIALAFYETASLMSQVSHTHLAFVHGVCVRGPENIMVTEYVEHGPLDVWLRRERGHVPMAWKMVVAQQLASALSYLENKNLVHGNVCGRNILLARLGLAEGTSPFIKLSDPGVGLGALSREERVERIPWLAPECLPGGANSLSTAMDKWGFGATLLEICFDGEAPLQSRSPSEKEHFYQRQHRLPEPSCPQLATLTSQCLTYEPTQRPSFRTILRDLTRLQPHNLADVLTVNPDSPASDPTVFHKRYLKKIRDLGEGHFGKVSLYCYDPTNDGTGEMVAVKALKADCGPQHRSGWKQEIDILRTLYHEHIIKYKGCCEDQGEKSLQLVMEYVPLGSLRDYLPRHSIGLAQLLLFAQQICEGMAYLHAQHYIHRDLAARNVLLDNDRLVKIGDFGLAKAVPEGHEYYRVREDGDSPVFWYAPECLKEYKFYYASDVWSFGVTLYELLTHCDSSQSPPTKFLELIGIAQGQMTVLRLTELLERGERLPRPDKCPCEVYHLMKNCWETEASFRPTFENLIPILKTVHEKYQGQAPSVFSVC

| Structure (SMILES) | IC50 [1] | IC50 [2] | Cmax ([3]; colon) | AUC(0-t) ([3]; colon) | MRT ([3]; colon) | Tmax ([3]; colon) | Cmax ([3]; ileum) | AUC(0-t) ([3]; ileum) | AUC(0-inf) ([3]; ileum) | half-life ([3]; ileum) | MRT ([3]; ileum) | Tmax ([3]; ileum) | Cmax ([3]; plasma, blood) | AUC(0-t) ([3]; plasma, blood) | AUC(0-inf) ([3]; plasma, blood) | half-life ([3]; plasma, blood) | MRT ([3]; plasma, blood) | Tmax ([3]; plasma, blood) |
| --- | --- | --- | --- | --- | --- | --- | --- | --- | --- | --- | --- | --- | --- | --- | --- | --- | --- | --- |
| CNCC(=O)N1[C@@H]2CCC[C@H]1C[C@H](Nc1nc(Nc3cc(C)[nH]n3)c3ccsc3n1)C2 [Embodiment 247, 1-((3-exo)-3-((4-((5-methyl-1H-pyrazol-3-yl)amino)thieno[2,3-d]pyrimidin-2-yl)amino)-9-azabicyclo[3.3.1]non-9-yl)-2-(methylamino)-ethane-1-one] | 0.12 nM | 2.27 nM | 2270 ng/mL | 10200 ng·h/mL | 4.05 h | 3 h | 13800 ng/mL | 24700 ng·h/mL | 24900 ng·h/mL | 0.92 h | 1.39 h | 1 h | – | – | – | – | – | – |
| Cc1cc(Nc2nc(N(C)[C@@H]3C[C@H]4CCC[C@@H](C3)N4C(=O)CN3CCN(C)CC3)nc3sccc23)n[nH]1 [Embodiment 257, 1-((3-exo)-3-(methyl(4-((5-methyl-1H-pyrazol-3-yl)amino)thieno[2,3-d]pyrimidin-2-yl)amino)-9-azabicyclo[3.3.1]non-9-yl)-2-(4-methylpiperazin-1-yl)ethane-1-one] | 0.2 nM | 1.45 nM | 3990 ng/mL | 12300 ng·h/mL | 4.24 h | 5 h | 25800 ng/mL | 104000 ng·h/mL | 123000 ng·h/mL | 1.98 h | 3.07 h | 3 h | 33.9 ng/mL | 64.7 ng·h/mL | 64.8 ng·h/mL | 1.22 h | 2.18 h | 1 h |
| Cc1cc(Nc2nc(N[C@@H]3C[C@H]4CCC[C@@H](C3)N4C(=O)c3ccccn3)nc3sccc23)n[nH]1 [Embodiment 260, ((3-exo)-3-((4-((5-methyl-1H-pyrazol-3-yl)amino)thieno[2,3-d]pyrimidin-2-yl)amino)-9-azabicyclo[3.3.1]non-9-yl)(pyridin-2-yl)methanone] | 0.225 nM | 1.1 nM | 8880 ng/mL | 24400 ng·h/mL | 3.39 h | 3 h | 9080 ng/mL | 18500 ng·h/mL | 18700 ng·h/mL | 1.01 h | 1.57 h | 1 h | 24 ng/mL | 27.3 ng·h/mL | 29.4 ng·h/mL | 1.57 h | 1.37 h | 1 h |
| Cc1cc(Nc2nc(N[C@@H]3C[C@H]4CC[C@@H](C3)N4CCC#N)nc3sc(C)cc23)n[nH]1 [Embodiment 277, 3-((3-exo)-3-((6-methyl-4-((5-methyl-1H-pyrazol-3-yl)amino)thieno[2,3-d]pyrimidin-2-yl)amino)-8-azabicyclo[3.2.1]oct-8-yl)propionitrile] | 0.58 nM | 0.49 nM | 649 ng/mL | 2890 ng·h/mL | 3.89 h | 7 h | 18700 ng/mL | 43000 ng·h/mL | 43300 ng·h/mL | 0.92 h | 1.77 h | 1 h | 12 ng/mL | 29.1 ng·h/mL | 31.1 ng·h/mL | 0.96 h | 2.53 h | 2 h |
| Cc1cc(Nc2nc(N[C@@H]3C[C@H]4CCC[C@@H](C3)N4CCC#N)nc3scnc23)n[nH]1 [Embodiment 278, 3-((3-exo)-3-((7-((5-methyl-1H-pyrazol-3-yl)amino)thiazolo[5,4-d]pyrimidin-5-yl)amino)-9-azabicyclo[3.3.1]non-9-yl)propionitrile] | 0.98 nM | 0.29 nM | 1300 ng/mL | 4640 ng·h/mL | 4.26 h | 5 h | 3700 ng/mL | 6240 ng·h/mL | 6260 ng·h/mL | 0.95 h | 1.28 h | 1 h | 1.79 ng/mL | 3.62 ng·h/mL | – | – | 1.5 h | 0.5 h |
